The supplement of paper PMC6461962

How the values were obtained:
[1] = system: Pseudomonas fluorescens FW300-N2E2
How it was run: (§1)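 Washed cells (final OD600 0.02, 80 µL) were added to 384-well plates of serially diluted inorganic ion salts or equimolar nitrilotriacetic acid complexes. Aerobic plates were shaken at 700 rpm at 30 °C, and anaerobic plates were left unshaken. OD600 was read at 24 h (48 h for R2A strain comparisons) and scaled between water and growth-blocking antibiotic controls, dropping wells with precipitate. IC50 came from drc R package fits of at least two biological replicate curves.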

[2] = system: Rhodanobacter sp. FW104-10B01
How it was run: as §1

[3] = medium / electron acceptor: N2E2 Glucose/aerobic
[4] = medium / electron acceptor: N2E2 Glucose/aerobic 0.25xMinerals
[5] = medium / electron acceptor: N2E2 Glucose/aerobic (2)
[6] = medium / electron acceptor: N2E2 KB/aerobic
[7] = medium / electron acceptor: N2E2 LB/aerobic
[8] = medium / electron acceptor: N2E2 LB/aerobic (2)
[9] = medium / electron acceptor: N2E2 LB/nitrate
[10] = medium / electron acceptor: N2E2 Lactate/aerobic
[11] = medium / electron acceptor: N2E2 R2A/aerobic
[12] = medium / electron acceptor: 10B01 R2A/aerobic
[13] = medium / electron acceptor: 10B01 R2A/nitrate

| SMILES | IC50 growth inhibition [1, 3] | IC50 growth inhibition [1, 4] | IC50 growth inhibition [1, 5] | IC50 growth inhibition [1, 6] | IC50 growth inhibition [1, 7] | IC50 growth inhibition [1, 8] | IC50 growth inhibition [1, 9] | IC50 growth inhibition [1, 10] | IC50 growth inhibition [1, 11] | IC50 growth inhibition [2, 12] | IC50 growth inhibition [2, 13] |
| --- | --- | --- | --- | --- | --- | --- | --- | --- | --- | --- | --- |
| O=P(O)(O)OP(=O)(O)O [Sodium pyrophosphate dibasic] | 29.4 mM | 0.848 mM | 0.226 mM | 1.78 mM | 36.1 mM | 25.4 mM | 4.34 mM | > 50 mM | 2.35 mM | 8.54 mM | 0.854 mM |
| O=[Si](O)O [Sodium metasilicate] | < 0.244 mM | < 0.244 mM | < 0.244 mM | < 0.244 mM | < 0.244 mM | < 0.244 mM | < 0.244 mM | < 0.244 mM | < 0.244 mM | < 0.244 mM | < 0.244 mM |
| [F-].[Na+] [sodium fluoride] | < 0.244 mM | < 0.244 mM | < 0.244 mM | 0.322 mM | 1.11 mM | 1.1 mM | 0.497 mM | 0.477 mM | 2.9 mM | 354 mM | 11.6 mM |
| O.[Au+3].[Cl-].[Cl-].[Cl-] [gold (III) chloride hydrate] | < 0.000244 mM | 0.00197 mM | < 0.000244 mM | < 0.000244 mM | < 0.000244 mM | < 0.000244 mM | < 0.000244 mM | 0.000257 mM | < 0.000244 mM | < 0.000244 mM | < 0.000244 mM |
| O.O.O.O.[Cl][Mn][Cl] [Manganese (II) chloride tetrahydrate] | > 5 mM | > 5 mM | 1.57 mM | > 5 mM | 3.79 mM | 3.91 mM | > 5 mM | > 5 mM | 1.45 mM | > 5 mM | > 5 mM |
| [Ca+2].[Cl-].[Cl-] [Calcium chloride dihydrate] | > 500 mM | > 500 mM | > 500 mM | > 500 mM | 309 mM | 365 mM | 65.1 mM | 452 mM | 333 mM | 354 mM | 354 mM |
| [Cl-].[Cl-].[Sr+2] [Strontium chloride] | 0.332 mM | < 0.244 mM | < 0.244 mM | < 0.244 mM | 27.7 mM | 17.2 mM | 12.8 mM | < 0.244 mM | 261 mM | 354 mM | 370 mM |
| O=[N+]([O-])[O-].[Na+] [Sodium nitrate] | 275 mM | > 500 mM | 324 mM | 354 mM | 354 mM | 383 mM | > 500 mM | 354 mM | 400 mM | > 500 mM | > 500 mM |
| [Cl][Ga]([Cl])[Cl] [Gallium(III)chloride] | < 0.0244 mM | < 0.0244 mM | < 0.0244 mM | < 0.0244 mM | < 0.0244 mM | < 0.0244 mM | < 0.0244 mM | < 0.0244 mM | < 0.0244 mM | 1 mM | 1.67 mM |
| [Cl][Fe]([Cl])[Cl] [Ferric chloride] | > 50 mM | > 50 mM | 39.2 mM | > 50 mM | > 50 mM | > 50 mM | > 50 mM | 41.7 mM | 0.237 mM | > 50 mM | > 50 mM |
| [O-][Cl+]O [Sodium Chlorite] | < 0.00244 mM | < 0.00244 mM | < 0.00244 mM | < 0.00244 mM | 0.0105 mM | < 0.00244 mM | 0.00287 mM | < 0.00244 mM | 0.00662 mM | > 5 mM | > 5 mM |
| [Cl][Hg][Cl] [mercury (II) chloride] | < 0.00244 mM | < 0.00244 mM | < 0.00244 mM | < 0.00244 mM | < 0.00244 mM | < 0.00244 mM | < 0.00244 mM | < 0.00244 mM | < 0.00244 mM | < 0.00244 mM | < 0.00244 mM |
| O.O.[Na+].[Na+].[O]=[W](=[O])([O-])[O-] [Sodium tungstate dihydrate] | < 0.244 mM | < 0.244 mM | 3.31 mM | 1.17 mM | 0.539 mM | 20.5 mM | 21.3 mM | < 0.244 mM | 237 mM | > 500 mM | > 500 mM |
| O=NO [Sodium nitrite] | 17.3 mM | 6.63 mM | 3.89 mM | 15.3 mM | 22.8 mM | 41.6 mM | 14.8 mM | 23 mM | 8.81 mM | > 50 mM | > 50 mM |
| O.O.O.O.O.O.[Cl-].[Cl-].[Mg+2] [Magnesium chloride hexahydrate] | 276 mM | 431 mM | 366 mM | 354 mM | 354 mM | 360 mM | 321 mM | 354 mM | 268 mM | 218 mM | 141 mM |
| O=[Se](=O)([O-])[O-].[Na+].[Na+] [Sodium selenate] | < 0.244 mM | < 0.244 mM | < 0.244 mM | 290 mM | 354 mM | 300 mM | 189 mM | < 0.244 mM | 62.5 mM | 251 mM | 163 mM |
